Assay results published in patent publication US20240099989A1, “AGENT FOR PREVENTING OR IMPROVING PERIPHERAL NEUROPATHY” (KINKI UNIVERSITY, priority 2021, published 2024).

What was measured:
[1] = tested on: Peripheral Neuropathy in a Mouse Caused by Oxaliplatin; test: Von Frey test (0.16 g filament), peripheral neuropathy caused by oxaliplatin; assay type: in vivo, Balb/c mice; details: 6 mg/kg oxaliplatin + 100 mg/kg orally daily from Day 6 (therapy)
Text: (§1) Six to seven-week-old female Balb/c mice were used for the tests as with Example 1. All the mice were acclimated for seven days after arrival. Then, the mice were grouped into the following four groups: a control group, a group receiving oxaliplatin, a group receiving D-threitol, and a group receiving oxaliplatin and D-threitol (a group receiving oxaliplatin+D-threitol). Each group consisted of five mice.
(§2) On Day 8 of acclimation, the mice in the group receiving oxaliplatin and the group receiving oxaliplatin+D-threitol were intraperitoneally administered with oxaliplatin at a dose of 6 mg/kg. This day was designated as the first day of the administration (Day 0). Thereafter, these mice were intraperitoneally administered with oxaliplatin at a daily dose of 6 mg/kg on Day 7 and Day 14.
The mice in the group receiving D-threitol and the group receiving oxaliplatin+D-threitol were orally administered with D-threitol at a dose of 5 mg/kg daily from Day 0.
The mice in the four groups described in (1) of the present example (Example 3) were placed in a cage, and the avoidance response frequency (score) was measured by pressing a filament with a bending force of 0.16 g against the back of the hind paw.
On Day 8 of acclimation, the mice in the group receiving oxaliplatin and the group receiving oxaliplatin+D-threitol were intraperitoneally administered with oxaliplatin at a dose of 6 mg/kg. This day was designated as the first day of the administration (Day 0). Thereafter, these mice were intraperitoneally administered with oxaliplatin at the same dose on Day 7 and Day 14 for a total of 3 doses.
The mice in the group receiving 100 mg/kg D-threitol were orally administered with D-threitol at a dose of 100 mg/kg daily from Day 0. The mice in the group receiving oxaliplatin+100 mg/kg D-threitol were orally administered with D-threitol at a dose of 100 mg/kg daily from Day 6 of administration.
For the mice in the four groups described in (1) of the present example (Example 4), the avoidance response frequency (score) was measured by pressing a filament with a bending force of 0.16 g against the back of the hind paw.
as §1, with “L-talitol,” for “D-threitol,”, “L-talitol” for “D-threitol”, “oxaliplatin+L-talitol).” for “oxaliplatin+D-threitol).”, “mice. […]” for “mice.”
The mice in the four groups described in (1) of the present example (Example 5) were placed in a cage, and the avoidance response frequency (score) was measured by pressing a filament with a bending force of 0.16 g against the back of the hind paw. […]

[2] = tested on: Peripheral Neuropathy in a Mouse Caused by Vincristine; assay type: in vivo, Balb/c mice; details: 0.2 mg/kg vincristine + 100 mg/kg orally daily from Day 6 (therapy); from Day 12 onwards
Text: (§3) Six to seven-week-old female Balb/c mice were used for the tests. All the mice were acclimated for seven days after arrival. Then, the mice were grouped into the following four groups: a control group, a group receiving vincristine, a group receiving xylitol, and a group receiving vincristine and xylitol (a group receiving vincristine+xylitol). Each group consisted of five mice.
as §2, with “vincristine” for “oxaliplatin”, “vincristine+xylitol” for “oxaliplatin+D-threitol”, “0.2” for “6”, “Day 0” for “the first day”, “administration.” for “the administration (Day 0).”
The mice in the group receiving xylitol and the group receiving vincristine+xylitol were orally administered with xylitol at a dose of 5 mg/kg daily from Day 0.
The mice in the four groups described in (7) of the present example (Example 1) were placed in a cage, and the avoidance response frequency (score) was measured by pressing a filament with a bending force of 0.16 g against the back of the hind paw.
as §3, with “tests as with Example 1.” for “tests.”, “mice. […]” for “mice.”
For the mice in the four groups described in (9) of the present example (Example 2), the avoidance response frequency (score) was measured by pressing a filament with a bending force of 0.16 g against the back of the hind paw. […]
The mice in the four groups described in (7) of the present example (Example 3) were placed in a cage, and the avoidance response frequency (score) was measured by pressing a filament with a bending force of 0.16 g against the back of the hind paw. […]

## OC[C@H](O)[C@H](O)[C@H](O)[C@@H](O)CO [L-talitol]
[1]; from Day 12 onwards
  avoidance response score: maintained a score clearly lower than that of the group receiving oxaliplatin
[2]
  avoidance response score: maintained a score clearly lower than that of the group receiving vincristine

## OC[C@@H](O)[C@H](O)CO [D-threitol]
[1]; from Day 15 onwards
  avoidance response score: maintained a score clearly lower than that of the group receiving oxaliplatin
[2]
  avoidance response score: maintained a score clearly lower than that of the group receiving vincristine

## OC[C@@H](O)[C@H](O)[C@@H](O)CO [xylitol]
[1]; from Day 12 onwards
  avoidance response score: maintained a score clearly lower than that of the group receiving oxaliplatin
[2]
  avoidance response score: maintained a score clearly lower than that of the group receiving vincristine
